Each structure is given as a SMILES string. pIC50: −log10 of the molar value. ≈ marks a conversion by molar mass, not a printed value. Bounds are passed on as bounds.

Series [1] concerns Enterococcus faecalis ATCC 29212. Put plainly: MBC, agar aliquot subculture method. To be noted: ATCC29212; EF = Enterococcus faecalis. Type of series: cell-based.
The test system is the same in series [2]. Nature of the series: MIC, microtitration broth method. Type of series: cell-based. To be noted: ATCC29212; EF = Enterococcus faecalis; 24 h, 37 °C.
In series [3] the test system is Staphylococcus aureus ATCC 29213. Nature of the series: MBC, agar aliquot subculture method. Type of series: cell-based. The settings on record: ATCC29213; SA = Staphylococcus aureus ATCC 29213.
Series [4] has the same test system. Nature of the series: MIC, microtitration broth method. The settings on record: ATCC29213; SA = Staphylococcus aureus ATCC 29213; 24 h, 37 °C. Type of series: cell-based.
In series [5] the test system is S. aureus ATCC 29213 respiratory activity. Nature of the series: MTT assay of bacterial respiration. Type of series: cell-based, Staphylococcus aureus. The settings on record: for Conc.: corresponding multiple of MBC with at least 70% inhibition of respiratory activity / Conc.: lowest multiple of MIC with at least 70% inhibition of respiratory activity: S. aureus ATCC 29213, MTT, 24 h. On the technique in general: Formazan colour is commonly taken as a measure of viable cells.

Series [6] deals with vancomycin-resistant E. faecalis VRE 368 (VRE2). Put plainly: MBC, agar aliquot subculture method. To be noted: VRE2 = VRE 368. Type of series: cell-based, Enterococcus faecalis.
The subject of series [7] is vancomycin-resistant E. faecalis VRE 725B (VRE3). Put plainly: MIC, microtitration broth method. Type of series: cell-based, Enterococcus faecalis. To be noted: VRE3 = VRE 725B; 24 h, 37 °C.
Series [8] concerns vancomycin-resistant E. faecalis VRE 368 (VRE2). Put plainly: MIC, microtitration broth method. Type of series: cell-based, Enterococcus faecalis. To be noted: VRE2 = VRE 368; 24 h, 37 °C.
The test system of series [9] is methicillin-resistant S. aureus SA 630 (MRSA2). Nature of the series: MBC, agar aliquot subculture method. Type of series: cell-based. To be noted: Staphylococcus aureus; MRSA2 = SA 630.
The subject of series [10] is methicillin-resistant S. aureus SA 3202 (MRSA1). Nature of the series: MIC, microtitration broth method. Type of series: cell-based. To be noted: Staphylococcus aureus; MRSA1 = SA 3202; 24 h, 37 °C.
The nature of another series: Lipophilicity by RP-TLC. Type of series: physicochemical. The settings on record: Tris buffer pH 7.4/acetone, read-out: logPTLC. As to the method:
The lipophilicity parameters were determined experimentally using reverse phase thin-layer chromatography (RP-TLC). Chromatograms were prepared on RP-18F254s plates (1.05559.0001, Merck, Germany) precoated with nonpolar silicone oil. Plates were developed in glass chromatography chambers previously saturated with vapor of mobile phase. The mobile phase was composed of 0.2M Tris buffer (pH = 7.4) and acetone in different concentrations, i.e., 50%, 60%, 70%, 80 and 90%. The chromatograms were visualised in UV light (λ = 254 nm). Determination of the RF coefficient was carried out twice for all compounds; in all cases, acetone concentrations used. The final value of RF is the mean of the two measurements. The obtained RF coefficient was used to calculate the value of the RM parameter according to the equation: RM = log [(1/RF) − 1]. By extrapolating RM values to zero acetone concentration, a relative RM0 lipophilicity parameter was obtained, according to the equation: RM = RM0 + bC, where b is slope and C is concentration of acetone in mobile phase. Based on RM0 and the calibration curve, the values of logPTLC for compounds 6a–l were determined. The calibration curve was calculated using the relationship between RM0 of the standard molecules (acetanilide, p-kresol, p-bromoacetophenone, benzophenone, anthracene) and the corresponding logP parameters specified by the extraction method, respectively. RM0 parameters of the standard molecules and quinobenzothiazine derivatives 6a–l were determined in the same empirical conditions.

Series [11] concerns methicillin-resistant S. aureus SA 630 (MRSA2). Nature of the series: MIC, microtitration broth method. Type of series: cell-based. To be noted: Staphylococcus aureus; MRSA2 = SA 630; 24 h, 37 °C.
For series [12], the system named is methicillin-resistant S. aureus 63718 (MRSA3). Nature of the series: MBC, agar aliquot subculture method. Type of series: cell-based. The settings on record: Staphylococcus aureus; MRSA3 = 63718.
For series [13], the system named is normal human dermal fibroblasts (NHDF). Put plainly: In vitro cell viability, WST-1 assay. The settings on record: 72 h. Type of series: cell-based. The method, then:
Compounds were evaluated for their antiproliferative activity using NHDF (normal human dermal fibroblasts, ATCC, Manassas, VA, USA). The cultured cells were kept at 37 °C and 5% CO2. The cells were seeded (1 × 10^4 cells/well/100 μL DMEM supplemented with 10% FCS and streptomycin/penicillin) into 96-well plates (Corning Inc., Corning, NY, USA). Cells were counted using a hemocytometer (Burker chamber) and phase contrast Olympus IX50 microscope equipped with Sony SSC-DC58 AP camera and Olympus DP10 digital camera. The cell viability of the compounds was determined using the Cell Proliferation Reagent WST-1 assay (Roche Molecular Biochemicals, Mannheim, Germany). The examined cells were exposed to the tested compounds (1 mg/mL DMSO stock) for 72 h at various concentrations (0.1–100 μg/mL). The control was included in order to eliminate the DMSO effect at the concentration used. Cell cultures were incubated with WST-1 (10 μL) for 1 h. The absorbance of the samples was measured against a background control at 450 nm using a microplate reader with a reference wavelength at 600 nm. The obtained results are expressed as means of at least two independent experiments performed in triplicate.

Series [14] concerns methicillin-resistant S. aureus 63718 (MRSA3). Put plainly: MIC, microtitration broth method. Type of series: cell-based. To be noted: Staphylococcus aureus; MRSA3 = 63718; 24 h, 37 °C.
The subject of series [15] is vancomycin-resistant E. faecalis VRE 342B (VRE1). Nature of the series: MIC, microtitration broth method. Type of series: cell-based, Enterococcus faecalis. To be noted: VRE1 = VRE 342B; 24 h, 37 °C.
A further series deals with M. smegmatis ATCC 700084. Put plainly: In vitro antimycobacterial MIC, broth dilution micro-method. To be noted: Mycolicibacterium smegmatis, ATCC700084, 72 h; MS = M. smegmatis ATCC 700084; 3 days, 37 °C. Type of series: cell-based, Mycobacterium smegmatis. Background: Dilution methods test growth across graded concentrations, often in twofold steps.
The subject of series [16] is Mycobacterium marinum CAMP 5644. The series is described as above. The settings on record: CAMP5644, 504 h; MM = Mycobacterium marinum CAMP 5644; 21 days, 28 °C. Type of series: cell-based.
The subject of series [17] is methicillin-resistant S. aureus SA 3202 (MRSA1). Put plainly: MBC, agar aliquot subculture method. Type of series: cell-based. To be noted: Staphylococcus aureus; MRSA1 = SA 3202.
Series [18] concerns vancomycin-resistant E. faecalis VRE 342B (VRE1). Nature of the series: MBC, agar aliquot subculture method. Type of series: cell-based, Enterococcus faecalis. The settings on record: VRE1 = VRE 342B.
Series [19] concerns vancomycin-resistant E. faecalis VRE 725B (VRE3). Nature of the series: MBC, agar aliquot subculture method. Type of series: cell-based, Enterococcus faecalis. To be noted: VRE3 = VRE 725B.

Broadly, the MBC is the smallest concentration meeting the test's criterion for killing. The low end stands for more potent killing, the high end for less potent killing. One may read the MIC as the lowest concentration found to suppress growth. A high value points to weaker potency. As for `CC1(C)S[C@@H]2[C@H](NC(=O)[C@H](N)c3ccccc3)C(=O)N2[C@H]1C(=O)O` [AMP, ampicillin, reference compound], the MBC in series [1] turned out to be 2.81 µM (≈ 0.982 µg/mL); in [3], 5.72 µM (≈ 2 µg/mL). The MIC in series [2] was found to be 2.81 µM (≈ 0.982 µg/mL); in [4], 5.72 µM (≈ 2 µg/mL). Also, in series [5], the “Conc.: corresponding multiple of MBC with at least 70% inhibition of respiratory activity” value was 16× MIC (>16× MBC). In [5], the “Conc.: lowest multiple of MIC with at least 70% inhibition of respiratory activity” value is on record as 16× MIC (>16× MBC).

As to `O=C(O)c1cn(C2CC2)c2cc(N3CCNCC3)c(F)cc2c1=O` [CPX, ciprofloxacin, reference compound], in series [5], the “Conc.: corresponding multiple of MBC with at least 70% inhibition of respiratory activity” value was 32× MIC (32× MBC) and the “Conc.: lowest multiple of MIC with at least 70% inhibition of respiratory activity” value is reported as 32× MIC (32× MBC). Also, the “S. aureus Respiration Inhibition” value in series [5] (at the concentration given) came to 96.1%.

By pIC50 is commonly meant −log10 of the IC50, conventionally taken in molar units. With `CCCOc1ccc2c(c1)Nc1c(c[n+](C)c3ccccc13)S2` [Compound 6b, 10-propoxy-5-methyl-12H-quino[3,4-b][1,4]benzothiazinium chloride], the MBC was 178 µM in series [6]; 89.1 µM in [1]; 44.6 µM in series [9]; 22.3 µM in [12]; 44.6 µM in [3]; 44.6 µM in [17]. In addition, the MBC in [18] is 178 µM; in series [19] it was 89.1 µM. In addition, the MIC in series [7] worked out at 89.1 µM; in series [8] it was 178 µM; in series [10], 44.6 µM; in series [11], 44.6 µM; in [2] it was 89.1 µM; in [14], 22.3 µM. The MIC was found to be 178 µM in series [15], 22.3 µM in the series with M. smegmatis ATCC 700084, 22.3 µM in series [4] and 22.3 µM in series [16]. Further, in “Lipophilicity by RP-TLC”, the chromatographic logP was 1.99. Also, the pIC50 in series [13] is 4.18.

Consider `CCCOc1cccc2c1Nc1c(c[n+](C)c3ccccc13)S2` [Compound 6c, 11-propoxy-5-methyl-12H-quino[3,4-b][1,4]benzothiazinium chloride], for which the MBC in series [6], in [1], in [9], in [12], in [3] and in series [17] was 178 µM throughout. Moreover, the MBC in series [18] and in series [19] was 178 µM in each case. Moreover, the MIC came to 89.1 µM in [7]; 178 µM in series [8]; 178 µM in series [10]; 178 µM in series [11]; 178 µM in [2]; 178 µM in series [14]. The MIC worked out at 178 µM in series [15], 44.6 µM in the series on M. smegmatis ATCC 700084, 178 µM in [4] and 44.6 µM in series [16]. The chromatographic logP in the series “Lipophilicity by RP-TLC” was 1.18. The pIC50 in series [13] was < 4.00.

As to `C=CCOc1ccc2c(c1)Sc1c[n+](C)c3ccccc3c1N2` [Compound 6d, 9-allyloxy-5-methyl-12H-quino[3,4-b][1,4]benzothiazinium chloride], the MBC in [6] was found to be 44.8 µM; in [1] it was 44.8 µM; in [9] it was 89.6 µM; in series [12] it was 44.8 µM; in series [3], 44.8 µM; in series [17] it was 44.8 µM. In addition, the MBC in series [18] and in series [19] was 44.8 µM each time. In addition, the MIC turned out to be 22.4 µM in series [7]; 44.8 µM in series [8]; 44.8 µM in [10]; 89.6 µM in series [11]; 44.8 µM in [2]; 44.8 µM in series [14]. In addition, the MIC is 44.8 µM in series [15], 22.4 µM in the series on M. smegmatis ATCC 700084, 44.8 µM in [4] and 11.2 µM in [16]. The chromatographic logP in “Lipophilicity by RP-TLC” was 2.98. In addition, in series [13], the pIC50 is < 4.00.

As for `NNC(=O)c1ccncc1` [INH, isoniazid, reference compound], the results for the MIC (in the series with M. smegmatis ATCC 700084; in [16]) were 117 µM (≈ 16 µg/mL) and 467 µM (≈ 64 µg/mL), respectively.

Regarding `Cc1onc(-c2ccccc2)c1C(=O)N[C@@H]1C(=O)N2[C@@H]1SC(C)(C)[C@@H]2C(=O)O` [OXA, oxacillin, reference compound], the MBC in [9] was 29.7 µM (≈ 11.9 µg/mL); in series [12] it was 9.9 µM (≈ 3.97 µg/mL); in series [3], 1.25 µM (≈ 0.502 µg/mL); in series [17], 79.8 µM (≈ 32 µg/mL). Further, the MIC in [10] amounted to 79.8 µM (≈ 32 µg/mL); in series [11], 29.7 µM (≈ 11.9 µg/mL); in series [14], 9.9 µM (≈ 3.97 µg/mL); in [4], 1.25 µM (≈ 0.502 µg/mL).

On to `CO[C@H]1/C=C/O[C@@]2(C)Oc3c(C)c(O)c4c(O)c(c(/C=N/N5CCN(C)CC5)c(O)c4c3C2=O)NC(=O)/C(C)=C\C=C\[C@H](C)[C@H](O)[C@@H](C)[C@@H](O)[C@@H](C)[C@H](OC(C)=O)[C@@H]1C` [RIF, rifampicin, reference compound], for which the figures for the minimal inhibitory concentration (MIC) (against M. smegmatis ATCC 700084; in [16]) were 19.4 µM (≈ 16 µg/mL) and 2.43 µM (≈ 2 µg/mL), respectively.

Turning to `CN(C)[C@@H]1C(O)=C(C(N)=O)C(=O)[C@@]2(O)C(O)=C3C(=O)c4c(O)cccc4[C@@](C)(O)[C@H]3C[C@@H]12` [TTC, tetracycline, reference compound], the MIC in [10] is 36.1 µM (≈ 16 µg/mL); in series [11], 36.1 µM (≈ 16 µg/mL); in series [14], > 72.1 µM; in series [4], 4.52 µM (≈ 2.01 µg/mL).

Compound `COc1cccc2c1C(=O)c1c(O)c3c(c(O)c1C2=O)C[C@@](O)(C(=O)CO)C[C@@H]3O[C@H]1C[C@H](N)[C@H](O)[C@H](C)O1` [doxorubicin, reference compound] gave a pIC50 in [13] of 5.26.

For the origin of these results see article PMC9736374, “Design, Synthesis and Antimicrobial Properties of New Tetracyclic Quinobenzothiazine Derivatives” (International Journal of Molecular Sciences, 2022).
